Read-outs that look alike come from different tables or passages of the source.
Assays:
[1] = test system: Smad3-responsive luciferase reporter (SBE4-Luc); details: for suppression of Smad3 reporter activity, inhibition compared to DMSO control: absence of TGF-β1 stimulation
Procedure: Renilla luciferase reporter plasmid (pRL) was purchased from Promega.
Forty-eight hours post-transfection cells were treated with assigned concentrations of test compound together with or without 10 ng/ml TGF-β1 for 16 hours. Luciferase activities were measured using the Dual-Luciferase Reporter Assay kit (Promega, #E1910). Data are expressed as the ratio of firefly luciferase activity over Renilla luciferase activity. […] 48 hours after transfection, luciferase activities were measured.

UUO mice = assay: Unilateral ureteral obstruction (UUO) mouse model of renal fibrosis; format: in vivo; details: for fibrosis at 14 days post-surgery (picosirius red, Masson's trichrome, Collagen I immunofluorescence): administration starting at day 7 post-surgery (day 7 to 14)
Procedure: Tg26 mice of FVB/N genetic background bearing a defective HIV-1 provirus lacking gag-pol have been described by Feng et al. [J Am Soc Nephrol 2009; 20: 2138-2146]. Six-week old heterozygous Tg26 mice were used in this study. Wildtype littermates were used as controls. Mice in the treatment group received test compound dissolved in DMSO and diluted in saline (5% DMSO) by oral gavage at a dose of 200 μg/kg body weight per day. Mice in the control group received the same volume of 5% DMSO/saline vehicle. The mice were treated for a total of 4 weeks and sacrificed at age of 10 weeks. The UUO model was established in male C57BL/6 mice (The Jackson Laboratory) by ligation of the left ureter as described by Jin et al. [Lab Invest, 93: 801-811, 2013]. After the operation, UUO mice were randomly divided into control group (vehicle) and treatment group. Mice were fed with test compound by oral gavage at a dose of 200 μg/kg body weight per day for 7 days.
Immunofluorescence staining was conducted on paraffin-embedded kidney sections using standard procedures. Briefly, deparaffinized sections were incubated with primary antibody against collagen I (1:50, #NB6-00-4-8, Novus) at 4° C. overnight. After being washed, sections were incubated with Alexa Fluor488-labelled second antibody (1:200, #A11034, Invitrogen) at room temperature for 1 hour in darkness. After nuclei were stained with 4′, 6-diamidino-2-phenyllindole (DAPI) slides were mounted using Aqua PolyMount (Polysciences, Inc) and images were acquired using AxioVision IIe microscope with a digital camera.
Renal fibrosis was evaluated histologically by Sirius red staining on paraffin slides of mice kidney tissues according to the manufacturer's instructions (#ab150681, Abcam). Masson's trichrome staining on paraffin slices of mice kidney tissue was performed according to manufacturer's instructions (#87019, Thermo Scientific).
The unilateral ureteral obstruction (UUO) mouse model, a commonly used model for renal fibrosis, was used to determine whether compounds of the invention can ameliorate fibrosis in vivo. […]

HIPK2 = HIPK2 (Homo sapiens, UniProt Q9H2X6); assay: Drug affinity responsive target stability (DARTS) with pronase in 293T lysates; format: binding; parameters: endogenous in cells; host or cells: HEK 293T cell lysate; details: 1:10,000 pronase/cell lysate ratio
Procedure: Drug affinity responsive target stability (DARTS) method was used to identify protein targets of test compound as described previously by Pai et al. [Methods Mol Biol, 1263: 287-298, 2015]. Briefly, 293T lysates were incubated with test compound at room temperature for 1 hour. After incubation, cell lysates were subjected to proteolysis with various concentrations of pronase (#10165921001, Roche) at room temperature for 20 minutes. Proteolysis was stopped by addition of 5× protein loading buffer and heating at 90° C. for 5 minutes. Protein samples were subjected to western blot analysis.
Drug affinity responsive target stability (DARTS) has recently been developed to identify potential protein targets of small molecules. It is based on the principle that the binding of small molecule compound to the target protein changes the protein structure such that it can increase its stability and confer protection against proteolysis. In order to test whether compounds of the invention bind directly to HIPK2, we performed the DARTS experiments using pronase in presence of Example 1. […] Because HIPK2 abundance is quite low in many known cell types, we overexpressed His6-tagged HIPK2 in 293T cells for testing its interaction with the endogenous Smad3. The expression of His6-HIPK2 and Smad3 in 293T cells was confirmed by western blot. We pulled down His6-HIPK2 using cobalt beads and checked for the presence of Smad3 in cells treated with two different doses of Example 1.

[2] = test system: TGF-β1/Smad3 downstream target genes (Col I, CTGF, FN1, MMP2, PAI1, α-SMA); assay: Real-time PCR of TGF-β1/Smad3 downstream target genes in hRTECs; format: cell-based, human
Procedure: HEK 293T (293T) cells (ATCC) were cultured in Dulbecco's Modified Eagle's medium (Invitrogen) containing 10% fetal bovine serum (FBS), 0.5% penicillin and streptomycin at 37° C. and 5% CO2 humidified environment. Human primary tubular cells (PromoCell GmbH, Heidelberg, Germany) were cultured in Renal Epithelial Cell Growth Medium-2 (Promocell GmbH) with supplements according to manufacturer's protocol human primary renal tubular epithelial cells with <5 passages were used for all studies. For HIV infection of hRTECs, pNL4-3:ΔG/P-EGFP, a gag/poi-deleted HIV-1 construct that contains EGFP in the gag open reading frame, and pHR-IRES-EGFP, a control EGFP construct, were used to generate the VSV-G pseudotyped virus. Cells were infected with HIV pseudotyped virus or control virus for 2 days before the treatment with test compound.
Total RNA was extracted using Trizol (Invitrogen). 400 ng of total RNA was reverse transcribed to cDNA using SuperScript III first strand synthesis system (Invitrogen).
Quantitative RT-PCR was performed using 7500 Real-Time PCR System (Applied Biosystems). Gene level was normalized to glyceraldehyde 3-phosphate dehydrogenase (GAPDH) and expressed as fold change. The primer sets used were as follows:
The effects of compounds of the invention on Smad3 phosphorylation and the expression of the downstream target genes of TGF-β/Smad3 pathway was also examined. […]

[3] = test system: lactate dehydrogenase (LDH) level in cell culture medium; assay: LDH cytotoxicity assay of cell culture medium; format: cell-based; details: up to 30 μM, 16 hours of incubation
Procedure: Medium LDH measurement was performed using LDH Cytotoxicity Assay Kit (ThermoFisher scientific, NY) according to manufacturer's instructions.
In order to rule out the possibility that the reduction in Smad3 activity is due to the cytotoxicity of increasing concentration of compound, lactate dehydrogenase (LDH) level in cell culture medium was examined. LDH is released by damaged cells.

HIPK2, sequence (Q9H2X6 whole entry): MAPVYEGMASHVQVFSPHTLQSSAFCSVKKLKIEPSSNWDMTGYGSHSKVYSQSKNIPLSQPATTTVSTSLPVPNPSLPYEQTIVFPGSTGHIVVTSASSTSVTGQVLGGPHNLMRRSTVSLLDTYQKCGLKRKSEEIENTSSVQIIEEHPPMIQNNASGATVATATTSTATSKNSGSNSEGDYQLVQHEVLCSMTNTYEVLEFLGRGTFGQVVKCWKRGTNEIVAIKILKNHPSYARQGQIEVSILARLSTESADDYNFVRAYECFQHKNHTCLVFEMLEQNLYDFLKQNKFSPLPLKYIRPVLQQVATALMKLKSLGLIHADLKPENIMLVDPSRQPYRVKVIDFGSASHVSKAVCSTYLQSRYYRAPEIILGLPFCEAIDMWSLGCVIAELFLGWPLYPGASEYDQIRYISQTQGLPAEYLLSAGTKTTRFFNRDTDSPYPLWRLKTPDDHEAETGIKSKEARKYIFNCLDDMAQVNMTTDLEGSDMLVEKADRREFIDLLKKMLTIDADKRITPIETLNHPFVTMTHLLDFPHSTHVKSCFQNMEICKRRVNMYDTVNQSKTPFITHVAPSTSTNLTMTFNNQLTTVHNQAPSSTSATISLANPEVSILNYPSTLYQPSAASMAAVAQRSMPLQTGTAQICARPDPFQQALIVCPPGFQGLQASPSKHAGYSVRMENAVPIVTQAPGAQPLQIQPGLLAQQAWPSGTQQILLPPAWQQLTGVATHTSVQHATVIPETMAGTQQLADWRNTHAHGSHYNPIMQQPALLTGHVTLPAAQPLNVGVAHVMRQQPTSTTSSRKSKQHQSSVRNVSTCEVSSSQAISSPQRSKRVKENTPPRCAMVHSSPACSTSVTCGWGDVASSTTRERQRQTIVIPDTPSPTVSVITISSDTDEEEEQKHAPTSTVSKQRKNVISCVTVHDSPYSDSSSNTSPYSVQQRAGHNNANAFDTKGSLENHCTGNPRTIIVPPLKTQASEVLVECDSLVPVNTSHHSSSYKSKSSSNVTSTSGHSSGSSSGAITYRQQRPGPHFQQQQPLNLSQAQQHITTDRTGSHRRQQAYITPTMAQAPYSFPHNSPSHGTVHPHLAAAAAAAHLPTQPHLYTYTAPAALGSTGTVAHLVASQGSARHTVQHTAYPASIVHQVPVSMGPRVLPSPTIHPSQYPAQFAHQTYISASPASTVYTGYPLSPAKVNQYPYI

In the case of COc1ccc2cc(-c3nc(-c4ccc(Br)cc4)no3)cnc2c1 [Example 1, 3-(4-Bromophenyl)-5-(7-methoxyquinolin-3-yl)-1,2,4-oxadiazole], the “Luciferase Activity (Relative to DMSO control) −TGFβ” value [1] is reported as 0.197, the “suppression of Smad3 reporter activity, inhibition compared to DMSO control” value ([1]; 3.3 μm) is reported as about 40% and the “suppression of Smad3 reporter activity, inhibition compared to DMSO control” value ([1]; 10 μm) is reported as about 70%. For the same compound, the “SBE4-luciferase activity, inhibition compared to TGFβ1-treated only control” value ([1]; presence of TGF-β1, first of three tested doses) was about 40%, the “SBE4-luciferase activity, inhibition compared to TGFβ1-treated only control” value ([1]; presence of TGF-β1, second of three tested doses) was about 60% and the “SBE4-luciferase activity, inhibition compared to TGFβ1-treated only control” value ([1]; presence of TGF-β1, third of three tested doses) was about 75%. The “expression of Wnt/β-catenin pathway genes (Axin2, c-myc, Twist), real-time PCR” value (UUO mice; UUO kidneys, treatment day 7 to 14) was “significantly diminished”, the “Smad3 phosphorylation and α-SMA expression in UUO kidneys (western blot)” value (UUO mice; UUO mice, 200 μg/kg/day oral gavage, day of surgery to 7 days post-surgery) was “significantly decreased” and the “renal fibrosis (picrosirius red, Masson's trichrome, Collagen I immunofluorescence)” value (UUO mice; UUO mice, 200 μg/kg/day oral gavage, day of surgery to 7 days post-surgery, vs vehicle) was “significantly attenuated renal fibrosis”. The “fibrosis at 14 days post-surgery (picosirius red, Masson's trichrome, Collagen I immunofluorescence)” value (UUO mice; UUO mice, listed as BT173) was “significant attenuation of fibrosis”, the “fibrosis at 14 days post-surgery (picosirius red, Masson's trichrome, Collagen I immunofluorescence)” value (UUO mice; UUO mice, listed as Example I) was “showed efficacy in amelioration of fibrosis progression” and the “p53 activation (phosphorylation) in UUO kidneys” value (UUO mice; UUO mice, treatment day 7 to 14) was “no effects”. For the same compound, the “p-Smad3 and α-SMA in kidney cortex (western blot)” value (UUO mice; UUO mice, treatment day 7 to 14, vs vehicle-treated UUO kidneys) was “marked reduction”, the “protection of HIPK2 from pronase digestion (DARTS)” value (HIPK2; 30 μm) was “partial protection” and the “protection of HIPK2 from pronase digestion (DARTS)” value (HIPK2; 100 μm) was “complete protection”. The “protection of HIPK2 from pronase degradation (DARTS)” value (HIPK2; versus DMSO control) was “protected from degradation”, the “expression of Col I, CTGF, FN1, MMP2, PAI1 and α-SMA (real-time PCR)” value ([2]; absence of TGF-β1 stimulation) was “did not affect expression” and the “expression of Col I, CTGF, FN1, MMP2, PAI1 and α-SMA (real-time PCR)” value ([2]; treated with TGF-β1, increasing concentrations) was “progressively inhibited”. The “LDH level in the culture medium” value [3] was “no significant increase”.
